# Measurements as given in patent publication US12371428B2 (Exelixis, Inc., priority 2019, dated 2025).
# Where two headings read alike, the source gives them in different places.
# Tests used:
# [1] = molecular target: Human Mer (residues R557-E882 with H628Q and R794A) (Homo sapiens, UniProt Q12866); test: Human Mer kinase assay, 33P-phosphoryl transfer radiometric (Example C-1, KinaseProfiler); assay type: biochemical
# Description: Kinase activity and compound inhibition were investigated using the ^33P-Phosphoryl transfer radiometric kinase assay, performed using the KinaseProfiler™ service of Eurofins Pharma Discovery Services UK Limited. Dose-response experiments were performed using nine compound concentrations in a 96-well microtiter plate. For each assay, all compounds were prepared to a 50× final assay concentration (50 μM) in 100% DMSO, then diluted in a half-log series, with the final top concentration at 1 μM. This working stock of the compound was added to the assay well as the first component in the reaction, followed by the remaining components as detailed in the following assay protocols below. The positive control wells (100% kinase activity) contain all components of the reaction including 2% DMSO (control for solvent effects), except the compound of interest. Blank wells contain all components of the reaction, with the reference inhibitor, staurosporine. This reference compound was used to abolish kinase activity and generated the 0% kinase activity base-line. IC50 values were calculated by nonlinear regression analysis using the sigmoidal dose-response (variable slope) curve fit on XLFit version 5.3 (ID Business Solutions).
# Example C-1: Human Mer (residues R557-E882 with H628Q and R794A, 0.7 nM) was incubated with 8 mM MOPS pH 7.0, 0.2 mM EDTA, 30 mM NaCl, 250 μM […] (SEQ ID NO:2), 10 mM magnesium acetate, and 10 μM [γ-^33P-ATP]. The reaction was initiated by the addition of the Mg/ATP mix. After incubation for 40 minutes at room temperature, the reaction was stopped by the addition of phosphoric acid to a concentration of 0.5%. A reaction aliquot of 10 μL was then spotted onto a P30 filtermat and washed four times for 4 minutes in 0.425% phosphoric acid and once in methanol prior to drying and scintillation counting. Incorporated ^33P was measured using the Wallac Microbeta scintillation counter (Perkin Elmer).
# [2] = molecular target: Human AXL (residues 464-885) (Homo sapiens (Human), UniProt P30530); test: Human AXL kinase assay, HTRF KinEase (Example A-2); assay type: biochemical
# Description: Kinase activity and compound inhibition were also investigated using the HTRF® KinEase assay (Cisbio Cat #62TKOPEB) per manufacturer's instructions. In short, compounds were delivered in 300 nL volumes at 10 different concentrations in DMSO (3% final) to empty 384-well assay plates (Corning cat #3824). A mixture of enzyme, […] biotynlated peptide substrate, and buffer in 10 μL volume was added. The assay was started upon the addition of ATP (at Km). The 10 μL reaction was incubated at room temperature. The reaction was stopped upon the addition of detection buffer containing streptavidin-XL665 ([…]) and TK antibody-Eu3+(5 L).
# Kinase activity normalized to DMSO (100% activity) and reference compound at […] and (0% activity) was calculated using the fluorescence ratio […]. IC50 values were calculated by nonlinear regression analysis using a 4-parameter logistic curve fit in ActivityBase XE (IDBS).
# The mixture was added to the pre-plated compounds. […] The reaction was incubated at room temperature for 50 min and stopped upon the addition of SA-XL665 and TK-antibody both diluted in EDTA-containing kinase detection buffer (Cisbio). The kinase activity was calculated as stated above and the IC50 values were reported.
# [3] = molecular target: AXL (phospho-AXL, Gas6-stimulated A-172 glioblastoma cells) (Homo sapiens (Human), UniProt P30530); test: AXL autophosphorylation ELISA in A-172 cells (Example E); assay type: cell-based; details: cellular activity; AXL autophosphorylation ELISA in A-172 cells; read-out: Axl IC50
# Summary of the method: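 Phospho-AXL was measured by ELISA in lysates of Gas6-stimulated A-172 cells, starved 24 h in serum-free medium and exposed 1 h to an 8-point compound dilution at 0.3% DMSO.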
# [4] = protocol of Example C-1 (compounds 21-27, 41-47, 99, 104)
# [5] = protocol of Example A-2 (other compounds)
# Human Mer (residues R557-E882 with H628Q and R794A), sequence (Q12866 21-999 limits assumed, stated change not applied): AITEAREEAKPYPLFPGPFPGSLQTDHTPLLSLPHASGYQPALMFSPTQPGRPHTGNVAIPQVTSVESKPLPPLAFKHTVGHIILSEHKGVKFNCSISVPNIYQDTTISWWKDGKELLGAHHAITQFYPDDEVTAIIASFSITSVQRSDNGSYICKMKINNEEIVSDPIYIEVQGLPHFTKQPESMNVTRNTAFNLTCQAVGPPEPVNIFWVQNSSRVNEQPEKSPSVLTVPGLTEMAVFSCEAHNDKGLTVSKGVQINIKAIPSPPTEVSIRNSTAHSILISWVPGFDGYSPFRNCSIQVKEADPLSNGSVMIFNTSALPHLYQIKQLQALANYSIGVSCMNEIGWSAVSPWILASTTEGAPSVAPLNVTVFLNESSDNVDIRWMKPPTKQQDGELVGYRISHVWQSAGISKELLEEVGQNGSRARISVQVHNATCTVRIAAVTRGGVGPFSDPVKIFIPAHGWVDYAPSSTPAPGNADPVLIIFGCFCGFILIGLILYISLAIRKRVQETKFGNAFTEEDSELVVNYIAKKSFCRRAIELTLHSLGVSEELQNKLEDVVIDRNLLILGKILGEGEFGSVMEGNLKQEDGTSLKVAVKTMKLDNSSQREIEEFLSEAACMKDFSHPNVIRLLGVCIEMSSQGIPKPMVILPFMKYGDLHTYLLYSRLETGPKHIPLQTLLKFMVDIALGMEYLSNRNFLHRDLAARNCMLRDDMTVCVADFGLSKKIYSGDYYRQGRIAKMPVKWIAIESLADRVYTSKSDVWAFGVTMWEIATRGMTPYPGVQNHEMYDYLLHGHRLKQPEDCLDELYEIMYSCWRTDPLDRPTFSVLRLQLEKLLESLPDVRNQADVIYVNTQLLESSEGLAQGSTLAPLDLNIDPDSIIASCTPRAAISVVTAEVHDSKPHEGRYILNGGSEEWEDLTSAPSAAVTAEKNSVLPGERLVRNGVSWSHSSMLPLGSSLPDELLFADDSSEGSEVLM
# Human AXL (residues 464-885), sequence (P30530 473-894): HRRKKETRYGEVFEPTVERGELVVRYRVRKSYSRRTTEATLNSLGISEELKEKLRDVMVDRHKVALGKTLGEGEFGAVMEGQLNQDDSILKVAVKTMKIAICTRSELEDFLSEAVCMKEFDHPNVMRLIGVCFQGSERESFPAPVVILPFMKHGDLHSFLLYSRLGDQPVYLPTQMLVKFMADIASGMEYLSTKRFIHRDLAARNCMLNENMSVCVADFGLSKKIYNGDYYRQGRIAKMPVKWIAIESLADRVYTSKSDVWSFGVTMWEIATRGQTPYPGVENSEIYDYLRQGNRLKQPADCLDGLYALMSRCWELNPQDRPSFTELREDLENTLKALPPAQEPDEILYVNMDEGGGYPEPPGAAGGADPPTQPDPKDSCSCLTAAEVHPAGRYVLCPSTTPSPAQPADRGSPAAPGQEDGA
# AXL (phospho-AXL, Gas6-stimulated A-172 glioblastoma cells), sequence (P30530 26-894): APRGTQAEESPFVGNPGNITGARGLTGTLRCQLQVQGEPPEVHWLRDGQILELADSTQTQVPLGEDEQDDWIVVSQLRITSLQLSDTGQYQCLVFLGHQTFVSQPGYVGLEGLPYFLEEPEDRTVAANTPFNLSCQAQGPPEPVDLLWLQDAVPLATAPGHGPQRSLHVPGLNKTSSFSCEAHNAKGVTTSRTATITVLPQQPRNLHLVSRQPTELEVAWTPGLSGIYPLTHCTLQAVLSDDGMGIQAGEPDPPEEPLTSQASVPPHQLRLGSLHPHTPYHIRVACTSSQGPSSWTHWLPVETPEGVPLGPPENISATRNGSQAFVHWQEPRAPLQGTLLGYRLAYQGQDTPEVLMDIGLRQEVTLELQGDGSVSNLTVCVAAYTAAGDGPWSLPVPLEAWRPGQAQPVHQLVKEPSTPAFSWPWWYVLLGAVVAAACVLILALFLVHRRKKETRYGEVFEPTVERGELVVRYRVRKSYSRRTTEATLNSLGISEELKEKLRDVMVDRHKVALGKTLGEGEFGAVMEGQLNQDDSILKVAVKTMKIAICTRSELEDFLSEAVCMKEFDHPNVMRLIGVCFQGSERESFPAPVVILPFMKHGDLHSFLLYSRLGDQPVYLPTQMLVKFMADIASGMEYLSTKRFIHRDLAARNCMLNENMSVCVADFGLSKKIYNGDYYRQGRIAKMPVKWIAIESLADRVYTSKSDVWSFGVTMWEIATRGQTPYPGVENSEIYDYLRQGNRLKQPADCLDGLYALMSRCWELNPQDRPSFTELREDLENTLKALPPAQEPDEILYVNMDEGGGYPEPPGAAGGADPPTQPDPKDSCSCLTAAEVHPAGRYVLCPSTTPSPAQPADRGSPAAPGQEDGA
SMILES,"IC50 [1, 4] [nM]",IC50 [3] [nM],further results
"COc1cc2nccc(Oc3ccc(NC(=O)c4cn(C5CCCC5)c(C)c(-c5ccc(F)c(Cl)c5)c4=O)cc3F)c2nc1OC [Compound 27, 5-(3-Chloro-4-fluorophenyl)-1-cyclopentyl-N-[4-[(6,7-dimethoxy-1,5-naphthyridin-4-yl)oxy]-3-fluorophenyl]-6-methyl-4-oxopyridine-3-carboxamide]",< 100,–,–
"CNc1nccc2c(Oc3ccc(NC(=O)c4cnc(C)n(-c5ccc(F)cc5)c4=O)cc3)ccnc12 [Compound 543, 1-(4-fluorophenyl)-2-methyl-N-[4-[[8-(methylamino)-1,7-naphthyridin-4-yl)oxy]phenyl]-6-oxopyrimidine-5-carboxamide]",–,< 100,IC50 ([2]; protocol of Example A-2): < 100 nM
"COc1cc2ncnc(Oc3ccc(NC(=O)c4c5n(cc(-c6ccc(F)cc6)c4=O)CCC5)cc3F)c2cc1OC [Compound 406, N-[4-(6,7-dimethoxyquinazolin-4-yl)oxy-3-fluorophenyl]-6-(4-fluorophenyl)-7-oxo-2,3-dihydro-1H-indolizine-8-carboxamide]",–,< 100,"IC50 [2, 5]: < 100 nM"
"COc1cc2nccc(Oc3ccc(NC(=O)c4cn(C(C)C)c(C)c(-c5ccc(F)c(Cl)c5)c4=O)cc3F)c2nc1OC [Compound 24, 5-(3-Chloro-4-fluorophenyl)-N-[4-[(6,7-dimethoxy-1,5-naphthyridin-4-yl)oxy]-3-fluorophenyl]-6-methyl-4-oxo-1-propan-2-ylpyridine-3-carboxamide]",< 100,–,–
"CNc1ncc(C(=O)Nc2ccc(Oc3ccnc4cc(OC)c(OC)nc34)c(F)c2)c(=O)n1-c1ccc(F)cc1 [Compound 99, N-[4-[(6,7-Dimethoxy-1,5-naphthyridin-4-yl)oxy]-3-fluorophenyl]-1-(4-fluorophenyl)-2-(methylamino)-6-oxopyrimidine-5-carboxamide]",< 100,–,–
"COc1cc2nccc(Oc3ccc(NC(=O)c4c(C)nc(C)c(-c5ccc(F)cc5)c4O)cc3F)c2nc1OC [Compound 154, N-[4-[(6,7-Dimethoxy-1,5-naphthyridin-4-yl)oxy]-3-fluorophenyl]-5-(4-fluorophenyl)-4-hydroxy-2,6-dimethylpyridine-3-carboxamide]",–,< 100,"IC50 [2, 5]: < 100 nM"
"COc1cc2nccc(Oc3ccc(NC(=O)c4cncc(-c5ccc(F)cc5)c4O)cc3F)c2nc1OC [Compound 42, N-[4-[(6,7-Dimethoxy-1,5-naphthyridin-4-yl)oxy]-3-fluorophenyl]-5-(4-fluorophenyl)-4-hydroxypyridine-3-carboxamide]",< 100,–,–
"COc1cc2nccc(Oc3ccc(NC(=O)c4ccc(C)n(-c5ccc(F)cc5)c4=O)cc3F)c2nc1OC [Compound 254, N-[4-[(6,7-Dimethoxy-1,5-naphthyridin-4-yl)oxy]-3-fluorophenyl]-1-(4-fluorophenyl)-6-methyl-2-oxopyridine-3-carboxamide]",–,< 100,"IC50 [2, 5]: < 100 nM"
"COc1cc2nccc(Oc3ccc(NC(=O)c4cn(C(C)C)c(C)c(-c5ccc(Cl)c(Cl)c5)c4=O)cc3F)c2nc1OC [Compound 25, 5-(3,4-Dichlorophenyl)-N-[4-[(6,7-dimethoxy-1,5-naphthyridin-4-yl)oxy]-3-fluorophenyl]-6-methyl-4-oxo-1-propan-2-ylpyridine-3-carboxamide]",< 100,–,–
"COc1cc2nccc(Oc3ccc(NC(=O)c4cn(C5CCCC5)cc(-c5ccc(F)cc5)c4=O)cc3F)c2nc1OC [Compound 46, 1-Cyclopentyl-N-[4-[(6,7-dimethoxy-1,5-naphthyridin-4-yl)oxy]-3-fluorophenyl]-5-(4-fluorophenyl)-4-oxopyridine-3-carboxamide]",< 100,–,–
"COc1cc2nccc(Oc3ccc(NC(=O)c4cn(C5COC5)cc(-c5ccc(F)cc5)c4=O)cc3F)c2nc1OC [Compound 47, N-[4-[(6,7-Dimethoxy-1,5-naphthyridin-4-yl)oxy]-3-fluorophenyl]-5-(4-fluorophenyl)-1-(oxetan-3-yl)-4-oxopyridine-3-carboxamide]",< 100,–,–
"COc1cc2nccc(Oc3ccc(NC(=O)c4cn(CC(F)(F)F)c(C)c(-c5ccc(F)cc5)c4=O)cc3)c2cc1OC [Compound 260, N-[4-(6,7-Dimethoxyquinolin-4-yl)oxyphenyl]-5-(4-fluorophenyl)-6-methyl-4-oxo-1-(2,2,2-trifluoroethyl)pyridine-3-carboxamide]",–,< 100,"IC50 [2, 5]: < 100 nM"
"COc1cc2nccc(Oc3ccc(NC(=O)c4cn(C(C)C)c(C)c(-c5ccc(F)cc5)c4=O)cc3F)c2cc1OC [Compound 22, N-[4-(6,7-Dimethoxyquinolin-4-yl)oxy-3-fluorophenyl]-5-(4-fluorophenyl)-6-methyl-4-oxo-1-propan-2-ylpyridine-3-carboxamide]",< 100,–,–
"COc1cc2nccc(Oc3ccc(NC(=O)c4cn(C)cc(-c5ccc(F)cc5)c4=O)cc3F)c2nc1OC [Compound 45, N-[4-[(6,7-Dimethoxy-1,5-naphthyridin-4-yl)oxy]-3-fluorophenyl]-5-(4-fluorophenyl)-1-methyl-4-oxopyridine-3-carboxamide]",< 100,–,–
"COCCOc1ccc2nccc(Oc3ccc(NC(=O)c4c(C)nc(C)c(-c5ccc(F)cc5)c4O)cc3F)c2n1 [Compound 349, N-[3-fluoro-4-[[6-(2-methoxyethoxy)-1,5-naphthyridin-4-yl]oxy]phenyl]-5-(4-fluorophenyl)-4-hydroxy-2,6-dimethylpyridine-3-carboxamide]",–,< 100,"IC50 [2, 5]: < 100 nM"
"COc1cc2nccc(Oc3ccc(NC(=O)c4cnc(SC(C)C)n(-c5ccc(F)cc5)c4=O)cc3)c2cc1OC [Compound 539, N-[4-(6,7-dimethoxyquinolin-4-yl)oxyphenyl]-1-(4-fluorophenyl)-6-oxo-2-propan-2-ylsulfanylpyrimidine-5-carboxamide]",–,< 100,–
"COc1cc2nccc(Oc3ccc(NC(=O)c4cn(C(C)C)c(C)c(-c5ccc(F)cc5)c4=O)cc3F)c2nc1OC [Compound 21, N-[4-[(6,7-Dimethoxy-1,5-naphthyridin-4-yl)oxy]-3-fluorophenyl]-5-(4-fluorophenyl)-6-methyl-4-oxo-1-propan-2-ylpyridine-3-carboxamide]",< 100,–,–
"COc1cc2nccc(Oc3ccc(NC(=O)c4cn(C(C)C)cc(-c5ccc(F)cc5)c4=O)cc3F)c2nc1OC [Compound 44, N-[4-[(6,7-Dimethoxy-1,5-naphthyridin-4-yl)oxy]-3-fluorophenyl]-5-(4-fluorophenyl)-4-oxo-1-propan-2-ylpyridine-3-carboxamide]",< 100,–,–
"COc1cc2nccc(Oc3ccc(NC(=O)c4cn(C5CC5)cc(-c5ccc(F)cc5)c4=O)cc3F)c2nc1OC [Compound 41, 1-Cyclopropyl-N-[4-[(6,7-dimethoxy-1,5-naphthyridin-4-yl)oxy]-3-fluorophenyl]-5-(4-fluorophenyl)-4-oxopyridine-3-carboxamide]",< 100,–,–
"COc1cc2nccc(Oc3ccc(NC(=O)c4cn(C(C)C)cc(-c5ccc(F)cc5)c4=O)cc3F)c2cc1OC [Compound 43, N-[4-(6,7-Dimethoxyquinolin-4-yl)oxy-3-fluorophenyl]-5-(4-fluorophenyl)-4-oxo-1-propan-2-ylpyridine-3-carboxamide]",< 100,–,–
COc1cc2nccc(Oc3ccc(NC(=O)c4cn(C5CCCC5)c(C)c(-c5ccc(F)cc5)c4=O)cc3F)c2nc1OC [Compound 26],< 100,–,–
"COc1cc2nccc(Oc3ccc(NC(=O)c4cn(C(C)C)c(C)c(-c5ccc(Cl)c(Cl)c5)c4=O)cc3F)c2cc1OC [Compound 23, 5-(3,4-Dichlorophenyl)-N-[4-(6,7-dimethoxyquinolin-4-yl)oxy-3-fluorophenyl]-6-methyl-4-oxo-1-propan-2-ylpyridine-3-carboxamide]",–,–,IC50 [1]: 100 to 300 nM
